Data on one compound can be found in patent US20150216978A1, “MODULATORS OF DRUGS USING CARBOXYLESTERASE SELECTIVE INHIBITORS” (Rhode Island Board of Education, State of Rhode Island and …, priority 2013, published 2015).

For assay [1], the target named is T1, rat ces1d (Rattus norvegicus, UniProt P16303).
T1 sequence (P16303 19-565): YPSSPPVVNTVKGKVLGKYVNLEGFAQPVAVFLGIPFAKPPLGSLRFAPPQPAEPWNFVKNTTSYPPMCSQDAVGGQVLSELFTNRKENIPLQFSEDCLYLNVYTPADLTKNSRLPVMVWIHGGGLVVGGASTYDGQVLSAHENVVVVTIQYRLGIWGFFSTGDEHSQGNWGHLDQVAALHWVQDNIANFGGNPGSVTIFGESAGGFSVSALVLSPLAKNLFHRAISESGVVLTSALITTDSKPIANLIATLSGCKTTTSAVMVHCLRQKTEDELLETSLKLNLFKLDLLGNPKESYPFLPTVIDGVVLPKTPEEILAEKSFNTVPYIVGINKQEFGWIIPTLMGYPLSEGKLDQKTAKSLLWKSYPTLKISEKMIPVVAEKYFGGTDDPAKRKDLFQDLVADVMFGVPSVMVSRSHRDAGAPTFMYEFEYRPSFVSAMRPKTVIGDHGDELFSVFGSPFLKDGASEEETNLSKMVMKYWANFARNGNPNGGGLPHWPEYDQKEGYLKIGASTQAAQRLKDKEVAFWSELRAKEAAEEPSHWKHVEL
To be noted: major form of rat liver CES; cited from earlier work.

The target of assay [2] is T2, CES2 (Homo sapiens, UniProt O00748).
T2 sequence (O00748 27-559): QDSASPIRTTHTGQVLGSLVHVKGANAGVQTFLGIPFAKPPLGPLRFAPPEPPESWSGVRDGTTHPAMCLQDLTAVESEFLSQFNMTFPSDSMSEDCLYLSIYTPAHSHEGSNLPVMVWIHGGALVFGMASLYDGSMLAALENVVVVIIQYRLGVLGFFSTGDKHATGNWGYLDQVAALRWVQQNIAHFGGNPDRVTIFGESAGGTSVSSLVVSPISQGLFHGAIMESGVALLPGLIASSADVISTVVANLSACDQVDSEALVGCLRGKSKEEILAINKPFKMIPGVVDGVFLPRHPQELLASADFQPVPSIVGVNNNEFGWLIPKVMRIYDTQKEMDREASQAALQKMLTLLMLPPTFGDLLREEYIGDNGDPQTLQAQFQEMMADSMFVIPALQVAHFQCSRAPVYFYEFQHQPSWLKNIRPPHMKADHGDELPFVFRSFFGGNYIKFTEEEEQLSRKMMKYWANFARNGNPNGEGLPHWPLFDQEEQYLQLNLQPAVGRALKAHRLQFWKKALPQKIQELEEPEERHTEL
The assay can be described thus: Inhibition of carboxylesterases by Orlistat (human CES2). The format is biochemical. To be noted: Orlistat at 1 nM. The text has this:
(§1) For a decade, Orlistat has been the most used anti-obesity drug. However, the use of Orlistat has been associated with fatal liver and kidney toxicity. This type of toxicity is rare, pointing to a compound effect of multiple factors. Specifically, we assumed that orlistat alters the activity of detoxification enzymes, which may have fatal effects when these factors are perfectly aligned. To shed light on this possibility, we tested Orlistat for the inhibition of carboxylesterases, a class of hydrolytic enzymes with known detoxication significance. […] Orlistat at 1 nM inhibited CES2 by 75%, but no inhibition was detected with CES1. […] In a striking contrast, rat ces1d and ces1e, two major forms of liver CESs, were resistant to Orlistat (Biochem Pharmacol. 2013, 85:439-447).

For assay [3], the system named is cells. The assay can be described thus: Cell viability of cells treated with PPD in the presence or absence of Orlistat. The format is cell-based. The protocol: To shed light on the clinical consequences of inhibited CES2 by Orlistat, cells were treated with PPD in the presence or absence of Orlistat. PPD is a carbamate anticancer prodrug and activated preferentially by CES2 hydrolysis of the ester side chain of the carbamate (20, 21). […] This finding was confirmed in CES2 induced condition (Brit J Pharmacol. 2013, 168:1989-1999).

The target of assay [4] is T3, mouse ces2c (Mus musculus, UniProt Q91WG0).
T3 sequence (Q91WG0 27-561): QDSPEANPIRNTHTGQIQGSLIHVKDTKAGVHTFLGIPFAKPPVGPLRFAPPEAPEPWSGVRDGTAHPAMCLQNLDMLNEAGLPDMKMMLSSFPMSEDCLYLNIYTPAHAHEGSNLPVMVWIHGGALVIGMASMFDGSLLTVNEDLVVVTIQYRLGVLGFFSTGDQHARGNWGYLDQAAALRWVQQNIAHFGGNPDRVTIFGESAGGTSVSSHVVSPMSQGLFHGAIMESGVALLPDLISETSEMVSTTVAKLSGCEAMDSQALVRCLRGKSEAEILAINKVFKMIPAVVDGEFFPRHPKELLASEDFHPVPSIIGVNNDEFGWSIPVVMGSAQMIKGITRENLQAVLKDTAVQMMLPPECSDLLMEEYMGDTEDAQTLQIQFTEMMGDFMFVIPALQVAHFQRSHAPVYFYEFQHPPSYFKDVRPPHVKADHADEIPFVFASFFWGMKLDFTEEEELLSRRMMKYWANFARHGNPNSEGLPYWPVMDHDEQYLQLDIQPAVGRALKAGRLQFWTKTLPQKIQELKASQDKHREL
To be noted: 1 nM Orlistat; cited from earlier work.

Assay [5] has as its target T2, CES2. The assay can be described thus: Cellular inhibition of CES2 in LS180 cells, lysates tested by native gel electrophoresis and Western blotting. The format is cell-based. Details: endogenous in cells; host or cells: LS180. The protocol: The cellular activity of Orlistat was examined on the inhibition of CES2 within cells. To test this possibility, LS180 cells (a colon adenocarcinoma line) were treated with orlistat for 1-24 h, washed extensively to remove free Orlistat and lysed by sonication. The lysates were then tested for the hydrolytic activity by native gel electrophoresis. […] We next tested whether the less inhibition by prolonged incubation was due to increased expression of CES2. Western blotting was performed with the same gel stained for activity. As predicated, prolonged incubation increased CES2 expression (FIG. 3B). These findings established that regeneration of CES2 requires new synthesis of CES2.
In general terms: In western blotting, separated proteins are transferred to a membrane and probed.

Assay [6] has as its target T4, mouse ces2e (Mus musculus, UniProt Q8BK48).
T4 sequence (Q8BK48 27-559): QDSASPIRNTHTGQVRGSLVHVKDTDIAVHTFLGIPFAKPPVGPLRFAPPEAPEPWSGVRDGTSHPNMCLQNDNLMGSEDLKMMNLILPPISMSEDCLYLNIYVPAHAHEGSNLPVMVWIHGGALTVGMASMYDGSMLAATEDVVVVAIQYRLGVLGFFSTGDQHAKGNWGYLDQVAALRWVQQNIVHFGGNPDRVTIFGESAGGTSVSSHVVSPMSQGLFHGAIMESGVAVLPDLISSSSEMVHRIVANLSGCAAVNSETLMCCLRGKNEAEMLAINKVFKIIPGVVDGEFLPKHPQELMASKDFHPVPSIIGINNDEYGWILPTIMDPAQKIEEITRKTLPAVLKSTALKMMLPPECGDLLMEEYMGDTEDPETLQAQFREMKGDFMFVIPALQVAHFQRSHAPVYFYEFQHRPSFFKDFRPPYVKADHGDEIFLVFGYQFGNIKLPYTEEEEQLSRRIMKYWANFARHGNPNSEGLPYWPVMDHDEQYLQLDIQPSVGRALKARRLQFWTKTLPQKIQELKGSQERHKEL
To be noted: 1 nM Orlistat; cited from earlier work.

Assay [7] has as its target T5, rat ces1e (Rattus norvegicus, UniProt Q63108).
T5 sequence (Q63108 19-561): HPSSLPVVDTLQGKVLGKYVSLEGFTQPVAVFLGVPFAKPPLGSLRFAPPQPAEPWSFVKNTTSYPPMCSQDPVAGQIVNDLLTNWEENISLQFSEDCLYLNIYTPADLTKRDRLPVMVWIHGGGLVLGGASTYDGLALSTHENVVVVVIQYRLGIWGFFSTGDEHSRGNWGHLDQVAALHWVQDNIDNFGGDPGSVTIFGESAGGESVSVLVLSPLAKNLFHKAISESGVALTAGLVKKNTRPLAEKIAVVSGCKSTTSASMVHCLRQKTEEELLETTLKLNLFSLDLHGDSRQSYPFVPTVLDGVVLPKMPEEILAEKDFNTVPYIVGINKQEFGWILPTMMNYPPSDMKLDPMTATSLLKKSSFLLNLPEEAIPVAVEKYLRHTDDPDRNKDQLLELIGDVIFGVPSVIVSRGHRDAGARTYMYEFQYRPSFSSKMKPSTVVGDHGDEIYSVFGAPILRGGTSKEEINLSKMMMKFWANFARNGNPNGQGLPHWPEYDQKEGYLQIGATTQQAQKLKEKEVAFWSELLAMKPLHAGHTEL
To be noted: major form of rat liver CES; cited from earlier work.

For assay [8], the target named is T6, ces1d (Mus musculus, UniProt Q8VCT4).
T6 sequence (Q8VCT4 19-565): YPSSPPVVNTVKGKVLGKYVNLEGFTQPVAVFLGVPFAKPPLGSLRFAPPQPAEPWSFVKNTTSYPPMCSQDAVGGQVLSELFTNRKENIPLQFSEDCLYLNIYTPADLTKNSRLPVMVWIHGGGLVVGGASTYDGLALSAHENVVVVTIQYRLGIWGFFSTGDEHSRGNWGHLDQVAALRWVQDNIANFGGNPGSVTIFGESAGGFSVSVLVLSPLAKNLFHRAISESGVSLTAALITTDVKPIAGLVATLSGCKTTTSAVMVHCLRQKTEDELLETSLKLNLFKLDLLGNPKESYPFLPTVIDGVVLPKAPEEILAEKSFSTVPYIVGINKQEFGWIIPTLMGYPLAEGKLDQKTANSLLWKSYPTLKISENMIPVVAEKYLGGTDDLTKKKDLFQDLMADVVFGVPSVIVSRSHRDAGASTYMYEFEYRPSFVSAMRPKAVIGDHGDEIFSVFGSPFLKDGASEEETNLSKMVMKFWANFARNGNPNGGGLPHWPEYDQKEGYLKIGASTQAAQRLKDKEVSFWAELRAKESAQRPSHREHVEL
To be noted: 1 nM Orlistat; cited from earlier work.

The target of assay [9] is T7, CES1 (Homo sapiens, UniProt P23141).
T7 sequence (P23141 18-567): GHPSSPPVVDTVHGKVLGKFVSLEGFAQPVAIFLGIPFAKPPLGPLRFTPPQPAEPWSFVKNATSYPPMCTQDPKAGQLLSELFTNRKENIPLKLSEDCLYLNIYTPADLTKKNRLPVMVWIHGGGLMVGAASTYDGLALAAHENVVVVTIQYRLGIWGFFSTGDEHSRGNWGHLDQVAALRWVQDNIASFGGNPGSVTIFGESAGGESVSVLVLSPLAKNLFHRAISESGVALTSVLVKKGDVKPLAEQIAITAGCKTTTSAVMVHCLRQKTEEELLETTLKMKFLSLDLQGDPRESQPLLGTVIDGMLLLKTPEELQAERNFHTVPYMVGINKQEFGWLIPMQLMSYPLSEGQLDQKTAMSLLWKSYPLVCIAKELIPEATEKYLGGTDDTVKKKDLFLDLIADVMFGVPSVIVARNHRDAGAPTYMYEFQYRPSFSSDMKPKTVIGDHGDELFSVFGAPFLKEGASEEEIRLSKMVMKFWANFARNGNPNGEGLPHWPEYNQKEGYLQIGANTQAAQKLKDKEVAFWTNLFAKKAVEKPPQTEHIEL
The assay can be described thus: Inhibition of carboxylesterases by Orlistat (human CES1). The format is biochemical.
Description: as §1

In assay [10] the target is T2, CES2. The assay can be described thus: Irreversibility: human liver microsomes incubated with Orlistat, native gel electrophoresis, activity staining (CES2). The format is biochemical. Also noted: from tissue; host or cells: human liver microsomes. The protocol: It was tested whether the inhibition involves covalent interactions between Orlistat and CES2. Microsomes from human livers (CES1 and CES2) were incubated with Orlistat, resolved by native gel electrophoresis to remove free Orlistat, and stained for the remaining activity.
(Microsomes from liver hold many membrane-bound enzymes, among them those of drug oxidation.)

For orientation: inhibition means the relative decrease from the control value, in per cent. The low end stands for a weak effect, the high end for a strong effect.

As for `CCCCCCCCCCC[C@@H](C[C@@H]1OC(=O)[C@H]1CCCCCC)OC(=O)[C@H](CC(C)C)NC=O` [Orlistat], the “sensitivity of rat ces1d to Orlistat” value in assay [1] is recorded as “resistant”. The “inhibition of CES2” value in assay [2] worked out at 75%. Further, in [3] (PPD plus Orlistat), the “reduction of cell viability by PPD (carbamate) in the presence of Orlistat” value is on record as “significantly reversed”. Also, the “reduction of the cell killing activity of PPD” value in [3] (pretreatment with Orlistat) is no more than 60%. Also, the cell viability entry in assay [3] (treatment with substance alone) is recorded as “no changes”. The “inhibition of mouse ces2c” value in assay [4] is 90%. Also, the entries for the “inhibition of CES2 activity in cells” value in assay [5] (1-h incubation), in assay [5] (prolonged incubation 24 h) and in [5] (treated for 6 h) were roughly 80%, “less effective” and “Comparable inhibition”, respectively. Also, the “CES2 expression (Western blotting)” value in assay [5] (prolonged incubation 24 h) was “increased”. Moreover, in assay [6], the “inhibition of mouse ces2e” value was 55%. In addition, the “sensitivity of rat ces1e to Orlistat” value in assay [7] is on record as “resistant”. The “inhibition of ces1d” value in [8] is 12%. Besides, the inhibition at 0.1 µM in assay [9] (100 nM orlistat) is roughly 30%. Further, the “inhibition of CES1” value in assay [9] (Orlistat at 1 nM) was “no inhibition”. In addition, in assay [10] (human liver microsomes, free Orlistat removed by native gel electrophoresis), the “remaining activity of CES2 upon incubation with Orlistat” value was “profoundly reduced”. In addition, in assay [10] (inhibition persists after removal of Orlistat by electrophoresis), the “type of inhibition of CES2” value is “irreversible inhibitor”.
